ChEMBL document CHEMBL1137758, “Biphenyl C-cyclopropylalkylamides: New scaffolds for targeting estrogen receptor beta” (Bioorg Med Chem Lett, 2009)

How the values were obtained:
[1] = biological target: T1, Estrogen receptor (Homo sapiens) (UniProt P03372); assay: Displacement of fluorescein-labeled estradiol from human recombinant ERalpha at 0.2 uM by fluorescence polarization assay
T1 sequence (whole entry): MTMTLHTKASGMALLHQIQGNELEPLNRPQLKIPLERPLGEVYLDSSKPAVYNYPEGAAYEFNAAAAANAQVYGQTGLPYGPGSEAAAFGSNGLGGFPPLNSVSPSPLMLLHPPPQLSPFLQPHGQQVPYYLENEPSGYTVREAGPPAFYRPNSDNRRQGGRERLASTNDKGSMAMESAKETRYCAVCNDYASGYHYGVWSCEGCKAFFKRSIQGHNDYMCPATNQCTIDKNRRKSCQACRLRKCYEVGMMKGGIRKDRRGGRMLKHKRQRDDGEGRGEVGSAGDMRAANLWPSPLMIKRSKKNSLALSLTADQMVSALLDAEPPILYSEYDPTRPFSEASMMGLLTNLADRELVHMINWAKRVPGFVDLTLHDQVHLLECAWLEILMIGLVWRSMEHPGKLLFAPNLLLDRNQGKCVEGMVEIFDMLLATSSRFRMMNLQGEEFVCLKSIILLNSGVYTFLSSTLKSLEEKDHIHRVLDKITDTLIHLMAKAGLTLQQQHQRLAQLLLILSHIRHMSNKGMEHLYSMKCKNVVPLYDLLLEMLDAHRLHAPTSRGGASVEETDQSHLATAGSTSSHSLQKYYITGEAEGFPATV

[2] = biological target: T1, Estrogen receptor (Homo sapiens); assay: Displacement of fluorescein-labeled estradiol from human recombinant ERalpha at 1 uM by fluorescence polarization assay
[3] = biological target: T1, Estrogen receptor (Homo sapiens); assay: Displacement of fluorescein-labeled estradiol from human recombinant ERalpha at 5 uM by fluorescence polarization assay
[4] = biological target: T2, Estrogen receptor beta (Homo sapiens, UniProt Q92731); assay: Displacement of fluorescein-labeled estradiol from human recombinant ERbeta at 5 uM by fluorescence polarization assay
[5] = biological target: T2, Estrogen receptor beta; assay: Displacement of fluorescein-labeled estradiol from human recombinant ERbeta at 0.2 uM by fluorescence polarization assay
[6] = biological target: T2, Estrogen receptor beta; assay: Displacement of fluorescein-labeled estradiol from human recombinant ERbeta at 1 uM by fluorescence polarization assay

T2 sequence (Q92731 whole entry): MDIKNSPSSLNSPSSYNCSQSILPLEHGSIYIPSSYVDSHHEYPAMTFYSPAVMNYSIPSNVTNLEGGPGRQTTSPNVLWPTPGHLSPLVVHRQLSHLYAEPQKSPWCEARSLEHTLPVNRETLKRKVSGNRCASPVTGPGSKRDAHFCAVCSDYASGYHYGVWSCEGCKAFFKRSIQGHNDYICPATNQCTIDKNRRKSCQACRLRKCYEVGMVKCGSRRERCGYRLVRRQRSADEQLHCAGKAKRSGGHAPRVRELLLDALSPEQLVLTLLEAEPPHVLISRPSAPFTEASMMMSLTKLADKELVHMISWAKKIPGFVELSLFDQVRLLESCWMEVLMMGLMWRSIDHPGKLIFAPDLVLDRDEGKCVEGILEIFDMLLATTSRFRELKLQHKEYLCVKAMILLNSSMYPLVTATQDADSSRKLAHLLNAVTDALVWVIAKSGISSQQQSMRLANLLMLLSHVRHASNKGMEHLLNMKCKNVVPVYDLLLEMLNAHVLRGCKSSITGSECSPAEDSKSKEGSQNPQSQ

| Activity [1] [%] | Activity [2] [%] | Activity [3] [%] | Activity [4] [%] | Activity [5] [%] | Activity [6] [%] | Compound |
| --- | --- | --- | --- | --- | --- | --- |
| 27 | 25 | 27 | 4 | -1 | -3 | CCC/C=C(\CCC)[C@@H](NC(=O)c1ccc(-c2ccccc2)cc1)c1ccc(C(=O)OC)cc1 |
| 54 | 111 | 54 | 42 | 7 | 24 | CCC/C=C(\CCC)[C@@H](NS(=O)(=O)c1cccc2cccnc12)c1ccc(C(=O)OC)cc1 |
| 68 | 68 | 73 | 7 | 11 | 7 | C=C(CCC)[C@@H](NC(=O)c1ccccc1Cl)c1ccccc1 |
| 58 | 70 | 67 | 9 | 2 | 3 | C=C(CCCC)[C@@H](NC(=O)c1ccccc1)c1ccccc1 |
| 70 | 66 | 102 | 30 | 13 | 10 | CCC/C=C(\CCC)[C@@H](NS(=O)(=O)c1ccccc1)c1ccc(C(F)(F)F)cc1 |
| 6 | 15 | 57 | 22 | 0 | 2 | CCCC[C@@H]1C[C@H]1[C@@H](NC(=O)c1ccco1)c1ccc(C(F)(F)F)cc1 |
| 56 | 31 | 67 | 17 | 8 | 13 | CCC/C=C(\CCC)[C@@H](NC(=O)CCc1ccccc1)c1ccc(C(F)(F)F)cc1 |
| 54 | 54 | 75 | 6 | -3 | -2 | CCCC[C@@H]1C[C@H]1[C@@H](NC(=O)c1ccccc1)c1ccc(C(=O)OC)cc1 |
| -7 | 32 | 61 | 5 | 10 | 5 | CCC/C=C(\CCC)[C@@H](NC(=O)c1ccc(C(F)(F)F)cc1)c1ccc(C(F)(F)F)cc1 |
| -69 | 47 | 54 | 16 | 6 | 12 | CCC/C=C(\CCC)[C@@H](NS(=O)(=O)c1ccc(-c2ccccc2)cc1)c1ccc(C(=O)OC)cc1 |
| 26 | 39 | 73 | 25 | -2 | 5 | CCC[C@@H]1C[C@@]1(CCC)[C@@H](NC(=O)c1ccco1)c1ccc(C(Cl)(Cl)Cl)cc1 |
| 69 | 84 | 110 | 22 | -4 | 3 | CCC/C=C(\CCC)[C@@H](NC(=O)CC(C)C)c1ccccc1 |
| -111 | 29 | 41 | 6 | -3 | -2 | C=C(CCCC)[C@@H](NC(=O)c1ccco1)c1ccccc1 |
| 52 | 42 | -6 | 4 | 0 | 6 | CCCC[C@@H]1C[C@H]1[C@@H](NC(=O)c1ccc(-c2ccccc2)cc1)c1ccc(-c2ccccc2)cc1 |
| 61 | 92 | 98 | 40 | 15 | 32 | CCC/C=C(\CCC)[C@@H](NS(=O)(=O)c1ccccc1Cl)c1ccc(C(=O)OC)cc1 |
| 50 | 58 | 79 | 13 | 8 | 14 | CCCC[C@@H]1C[C@H]1C(NC(=O)c1cccs1)c1ccc(C(F)(F)F)cc1 (single isomer, unassigned) |
| 36 | 58 | 76 | 15 | -4 | -4 | CCC/C=C(\CCC)[C@@H](NC(=O)c1ccco1)c1ccc(C(=O)OC)cc1 |
| 63 | 86 | 90 | 43 | 15 | 29 | CCC/C=C(\CCC)[C@@H](NS(=O)(=O)c1ccc(C(F)(F)F)cc1)c1ccc(C(=O)OC)cc1 |

| Activity [1] [%] | Activity [2] [%] | Activity [3] [%] | Activity [4] [%] | Activity [5] [%] | Activity [6] [%] | Compound |
| --- | --- | --- | --- | --- | --- | --- |
| 47 | 33 | 28 | 14 | 2 | 8 | CCCC[C@@H]1C[C@H]1[C@@H](NC(=O)Cc1ccccc1)c1ccc(-c2ccccc2)cc1 |
| 43 | 31 | 73 | 19 | 9 | 12 | CCC/C=C(\CCC)[C@@H](NC(=O)c1cccs1)c1ccc(C(F)(F)F)cc1 |
| 64 | 63 | 53 | 10 | 2 | 2 | CCCC[C@@H]1C[C@H]1[C@@H](NC(=O)c1cccnc1)c1ccc(-c2ccccc2)cc1 |
| -61 | 21 | 27 | 3 | -8 | -7 | C=C(CCCC)[C@@H](NC(=O)c1ccc(C(F)(F)F)cc1)c1ccccc1 |
| 3 | 22 | 48 | 13 | -11 | -2 | CCC/C=C(\CCC)[C@@H](NC(=O)Cc1ccccc1)c1ccc(C(=O)OC)cc1 |
| 48 | 73 | 86 | 31 | 5 | 13 | CCC/C=C(\CCC)[C@@H](NC(=O)c1cccs1)c1ccc(C(=O)OC)cc1 |
| 46 | 11 | -77 | -25 | 19 | -10 | CCC/C=C(\CCC)[C@@H](NP(=O)(c1ccccc1)c1ccccc1)c1ccc(-c2ccccc2)cc1 |
| 29 | 20 | 1 | -3 | -7 | -6 | CCCCCC/C=C(\C)[C@@H](NC(=O)c1ccc(C(F)(F)F)cc1)c1ccc(-c2ccccc2)cc1 |
| 21 | 24 | 37 | 5 | -9 | -7 | C=C(CCCC)[C@@H](NC(=O)c1ccc(C(=O)OC)cc1)c1ccccc1 |
| 56 | 28 | 67 | 13 | 14 | 11 | CCC/C=C(\CCC)[C@@H](NS(=O)(=O)c1cccc2cccnc12)c1ccc(-c2ccccc2)cc1 |
| 39 | 33 | 92 | 32 | 5 | 8 | CCC/C=C(\CCC)[C@@H](NS(=O)(=O)c1cccs1)c1ccc(C(=O)OC)cc1 |
| 67 | 40 | 54 | 8 | -1 | -3 | C=C(CCCC)[C@@H](NC(=O)c1cccs1)c1ccccc1 |
| 27 | 42 | 63 | 10 | 1 | -4 | CCC/C=C(\CCC)[C@@H](NC(=O)C(C)(C)C)c1ccc(C(=O)OC)cc1 |
| 20 | 45 | 45 | 15 | -2 | 1 | CCCC[C@@H]1C[C@H]1[C@@H](NC(=O)c1ccc(C(F)(F)F)cc1)c1ccc(C(=O)OC)cc1 |
| 48 | 39 | 56 | 17 | -3 | -4 | CCC/C=C(\CCC)[C@@H](NS(C)(=O)=O)c1ccccc1 |
| 52 | 74 | 91 | 22 | 28 | 18 | CCCC[C@@H]1C[C@H]1[C@@H](NS(=O)(=O)c1cccc2cccnc12)c1ccc(-c2ccccc2)cc1 |
| 0 | 52 | 78 | 11 | 1 | 28 | CCC/C=C(\CCC)[C@@H](NC(=O)c1ccccc1)c1ccc(C(=O)OC)cc1 |

| Compound | Activity [1] [%] | Activity [2] [%] | Activity [3] [%] | Activity [4] [%] | Activity [5] [%] | Activity [6] [%] |
| --- | --- | --- | --- | --- | --- | --- |
| CCC/C=C(\CCC)[C@@H](NP(=O)(c1ccccc1)c1ccccc1)c1ccccc1 | 47 | 25 | 72 | 14 | 6 | 9 |
| CCCC[C@@H]1C[C@H]1[C@@H](NC(=O)c1ccccc1)c1ccc(-c2ccccc2)cc1 | 72 | 77 |  | 46 | 26 | 31 |
